This assay addresses T1, JAK2 (Homo sapiens, UniProt O60674).
T1 construct: purchased Thermo Fisher Scientific (Life Technologies) SelectScreen
In words: SelectScreen Z'LYTE. The class given is biochemical. The method, boiled down: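 SelectScreen broad panel; activity (Z'LYTE, Adapta) plus binding formats. ATP: Km app for CSF1R Z'LYTE; 10 for CAMK1 Adapta. Readout = % per kinase.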

T1 sequence (O60674 whole entry): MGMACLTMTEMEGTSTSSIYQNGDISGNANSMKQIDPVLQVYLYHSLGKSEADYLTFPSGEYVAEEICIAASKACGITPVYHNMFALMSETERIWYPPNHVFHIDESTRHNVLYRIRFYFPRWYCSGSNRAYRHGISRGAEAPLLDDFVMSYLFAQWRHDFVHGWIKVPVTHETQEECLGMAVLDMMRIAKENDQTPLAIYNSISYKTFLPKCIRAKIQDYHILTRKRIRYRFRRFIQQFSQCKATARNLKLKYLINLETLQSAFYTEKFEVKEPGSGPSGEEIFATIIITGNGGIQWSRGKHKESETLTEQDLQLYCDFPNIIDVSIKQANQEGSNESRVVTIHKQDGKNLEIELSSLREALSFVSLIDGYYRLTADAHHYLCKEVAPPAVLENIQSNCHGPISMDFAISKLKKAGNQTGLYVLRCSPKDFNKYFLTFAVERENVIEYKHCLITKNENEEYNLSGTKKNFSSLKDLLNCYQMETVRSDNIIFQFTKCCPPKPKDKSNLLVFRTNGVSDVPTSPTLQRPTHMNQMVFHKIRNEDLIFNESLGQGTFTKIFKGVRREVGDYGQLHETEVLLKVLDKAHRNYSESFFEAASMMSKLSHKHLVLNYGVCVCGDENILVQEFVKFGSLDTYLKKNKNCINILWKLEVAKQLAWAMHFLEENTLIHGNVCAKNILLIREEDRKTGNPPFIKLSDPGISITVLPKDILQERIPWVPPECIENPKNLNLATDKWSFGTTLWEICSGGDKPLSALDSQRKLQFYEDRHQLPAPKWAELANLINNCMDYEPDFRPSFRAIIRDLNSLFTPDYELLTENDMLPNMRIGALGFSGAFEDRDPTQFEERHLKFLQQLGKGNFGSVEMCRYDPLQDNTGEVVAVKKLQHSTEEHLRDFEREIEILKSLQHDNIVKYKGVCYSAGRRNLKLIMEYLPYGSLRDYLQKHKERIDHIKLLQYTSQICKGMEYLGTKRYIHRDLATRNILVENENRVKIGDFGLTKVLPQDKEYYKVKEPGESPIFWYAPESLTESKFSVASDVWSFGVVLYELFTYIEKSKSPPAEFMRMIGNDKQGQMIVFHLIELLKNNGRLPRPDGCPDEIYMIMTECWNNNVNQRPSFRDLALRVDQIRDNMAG

Molecule `CN(C(=O)CN1CCOCC1)c1ccc2sc3c(-c4cccc5c(=O)cc(N6CC7CCC(C6)O7)oc45)cccc3c2c1` [NU5455] had an inhibition at 1 µM of 2.5%.

Broadly, the inhibition is the relative decrease from the control value, in per cent. Low values mean a weak effect, high ones a strong effect.

The values are drawn from article PMC6934184, “Selective DNA-PKcs inhibition extends the therapeutic index of localized radiotherapy and chemotherapy” (The Journal of Clinical Investigation, 2019).
